Assay results reported in patent publication US7732468B2, “3-aryl-6-aryl-[ 1,2,4]triazolo[3,4-b][1,3,4]thiadiazoles and related compounds as activators of caspases and inducers of apoptosis and the use thereof” (Cytovia, Inc., priority 2006, dated 2010).
pEC50: −log10 of the molar value.

Key:
Type in all cases: cell-based
[1] = tested on: human hepatocellular carcinoma cell line SNU398; experiment: Caspase cascade activation in SNU398 cells; settings: SNU-398, 48 h incubation, read-out: caspase potency EC50 SNU398
Description: (§1) Human breast cancer cell lines T-47D, human hepatocellular carcinoma cell line SNU398, human colon carcinoma cell line HCT116, human cancer cell line H11299, human Burkitt's lymphoma cell line Namalwa, human lymphoma cell line Raji, and human B cell lymphoblastoid cell line Ramos were grown according to media component mixtures designated by American Type Culture Collection+10% FCS (Invitrogen Corporation), in a 5% CO2-95% humidity incubator at 37° C. T-47D and H1299 cells were maintained at a cell density between 50 and 80% confluency at a cell density of 0.1 to 0.6×10^6 cells/mL. Cells were harvested at 600×g and resuspended at 0.65×10^6 cells/mL into appropriate media+10% FCS. An aliquot of 22.5 μL of cells was added to a well of a 384-well microtiter plate containing 2.5 μL of a 10% DMSO in RPMI-1640 media solution containing 0.16 to 100 μM of 6-(3,4-dimethoxyphenyl)-3-(2-methoxyphenyl)-[1,2,4]triazolo[3,4-b][1,3,4]thiadiazole or other test compound (0.016 to 10 μM final). An aliquot of 22.5 μL of cells was added to a well of a 384-well microtiter plate containing 2.5 μL of a 10% DMSO in RPMI-1640 media solution without test compound as the control sample. The samples were mixed by agitation and then incubated at 37° C. for 48 h in a 5% CO2-95% humidity incubator. After incubation, the samples were removed from the incubator and 25 μL of a solution containing 14 μM of N-(Ac-DEVD)-N′-ethoxycarbonyl-R110 (SEQ ID No.:1) fluorogenic substrate (Cytovia, Inc.; WO99/18856), 20% sucrose (Sigma), 20 mM DTT (Sigma), 200 mM NaCl (Sigma), 40 mM Na PIPES buffer pH 7.2 (Sigma), and 500 μg/mL lysolecithin (Calbiochem) was added. The samples were mixed by agitation and incubated at room temperature. Using a fluorescent plate reader (Model SPECTRAfluor Plus, Tecan), an initial reading (T=0) was made approximately 1-2 min after addition of the substrate solution, employing excitation at 485 nm and emission at 530 nm, to determine the background fluorescence of the control sample. After the 3 h incubation, the samples were read for fluorescence as above (T=3 h).
(§2) The Relative Fluorescence Unit values (RFU) were used to calculate the sample readings as follows: RFU(T=3h)−Control RFU(T=0)=Net RFU(T=3h)
(§3) The activity of caspase cascade activation was determined by the ratio of the net RFU value for 6-(3,4-dimethoxyphenyl)-3-(2-methoxyphenyl)-[1,2,4]triazolo[3,4-b][1,3,4]thiadiazole (Example I) or other test compound to that of control samples. The EC50 (nM) was determined by a sigmoidal dose-response calculation (Prism 3.0, GraphPad Software Inc.).

[2] = tested on: human B cell lymphoblastoid cell line Ramos; experiment: Inhibition of cell proliferation (GI50) in Ramos cells; settings: 48 h incubation
Description: (§4) Human breast cancer cell lines T-47D, MX1 and MDAMB435, human colon carcinoma cell line HCT116, human leukemia cell line K562, human lymphoma cell line Raji, human B cell lymphoblastoid cell line Ramos, and human Burkitt's lymphoma cell line Namalwa were grown and harvested as in Example 14. An aliquot of […] of cells (4.4×10^4 cells/mL) was added to a well of a 96-well microtiter plate containing 5 μL of a 10% DMSO in RPMI-1640 media solution containing 10 nM to 100 μM of 6-(3,4-dimethoxyphenyl)-3-(2-methoxyphenyl)-[1,2,4]triazolo[3,4-b][1,3,4]thiadiazole (1 nM to 10 μM final). An aliquot of 45 μL of cells was added to a well of a 96-well microtiter plate containing 5 μL of a 10% DMSO in RPMI-1640 media solution without compound as the control sample for maximal cell proliferation (LMax). The samples were mixed by agitation and then incubated at 37° C. for 48 h in a 5% CO2-95% humidity incubator. After incubation, the samples were removed from the incubator and 25 μL of CellTiter-Glo™ reagent (Promega) was added. The samples were mixed by agitation and incubated at room temperature for 10-15 min. Plates were then read using a luminescent plate reader (Model SPECTRAfluor Plus, Tecan) to give Ltest values.
(§5) The samples were mixed by agitation and then incubated at 37° C. for 0.5 h in a 5% CO2-95% humidity incubator. After incubation, the samples were removed from the incubator and 25 μL of CellTiter-Glo™ reagent (Promega) was added. The samples were mixed by agitation and incubated at […] 10-15 min at room temperature in a 5% CO2-95% humidity incubator. Fluorescence was read as above, (LStart) defining luminescence for initial cell number used as baseline in GI50 determinations.
(§6) GI50 (dose for 50% inhibition of cell proliferation) is the concentration where [(LTest−LStart)/(LMax−LStart)]=0.5.

[3] = tested on: human Burkitt's lymphoma cell line Namalwa; experiment: Inhibition of cell proliferation (GI50) in Namalwa cells; settings: Burkitts lymphoma cell, 48 h incubation
Description: as §4, §5, §6

[4] = tested on: Human breast cancer cell lines T-47D; experiment: Caspase cascade activation (Ac-DEVD-R110 fluorogenic substrate) in T-47D cells; settings: T47D cells, 48 h incubation, read-out: caspase potency EC50 T47D
Description: as §1, §2, §3

[5] = tested on: human colon carcinoma cell line HCT116; experiment: Inhibition of cell proliferation (GI50) in HCT116 cells; settings: HCT 116 cells, 48 h incubation
Description: as §4, §5, §6

[6] = tested on: human colon carcinoma cell line HCT116; experiment: Caspase cascade activation in HCT116 cells; settings: HCT-116, 48 h incubation, read-out: caspase potency EC50 HCT116
Description: as §1, §2, §3

[7] = tested on: human lymphoma cell line Raji; experiment: Inhibition of cell proliferation (GI50) in Raji cells; settings: 48 h incubation
Description: as §4, §5, §6

[8] = tested on: human B cell lymphoblastoid cell line Ramos; experiment: Caspase cascade activation in Ramos cells; settings: 48 h incubation, read-out: caspase potency EC50 RAMOS
Description: as §1, §2, §3

[9] = tested on: human Burkitt's lymphoma cell line Namalwa; experiment: Caspase cascade activation in Namalwa cells; settings: Burkitts lymphoma cell, 48 h incubation, read-out: caspase potency EC50 Namalwa
Description: as §1, §2, §3

[10] = tested on: human leukemia cell line K562; experiment: Inhibition of cell proliferation (GI50) in K562 cells; settings: 48 h incubation
Description: as §4, §5, §6

[11] = tested on: human lymphoma cell line Raji; experiment: Caspase cascade activation in Raji cells; settings: RAJ1 cells, 48 h incubation, read-out: caspase potency EC50 RAJ1
Description: as §1, §2, §3

Row | Compound | pEC50 [1] | GI50 [2] | GI50 [3] | pEC50 [4] | GI50 [5] | pEC50 [6] | GI50 [7] | pEC50 [8] | pEC50 [9] | GI50 [10] | pEC50 [11]
1 | COc1ccccc1-c1nnc2sc(-c3cc4ccccc4o3)nn12 [Entry A1, 6-(Benzofuran-2-yl)-3-(2-methoxyphenyl)-[1,2,4]triazolo[3,4-b][1,3,4]thiadiazole] | 6.80 | 58 nM | 126 nM | 6.18 | 2500 nM | 6.49 | 966 nM | 6.94 | 7.04 | 124 nM | 6.70
2 | COc1cc(-c2nnc3sc(-c4ccc(C)cc4)nn23)cc(OC)c1OC [Entry B1, 6-p-Tolyl-3-(3,4,5-trimethoxyphenyl)-[1,2,4]triazolo[3,4-b][1,3,4]thiadiazole] | 6.31 | 119 nM | 253 nM | 5.81 | 1000 nM | 6.19 | 549 nM | 6.42 | 6.45 | 303 nM | 6.17
3 | COc1cccc(-c2nnc3sc(-c4ccc(N(C)C)cc4)nn23)c1 [Entry D1, 6-(4-Dimethylaminophenyl)-3-(3-methoxyphenyl)-1-[1,2,4]triazolo[3,4-b][1,3,4]thiadiazole] | 5.78 | 647 nM | 1130 nM | 5.86 | 6830 nM | 5.64 | 2600 nM | 5.90 | 5.89 | 1020 nM | 5.85
4 | CN(C)c1ccc(-c2nn3c(-c4ccccc4Cl)nnc3s2)cc1 [Entry E1, 3-(2-Chlorophenyl)-6-(4-dimethylaminophenyl)-[1,2,4]triazolo[3,4-b][1,3,4]thiadiazole] | 6.25 | 146 nM | 167 nM | 5.96 | 2040 nM | 5.92 | 519 nM | 6.49 | 6.49 | 332 nM | 6.24
5 | CCN(CC)c1ccc(-c2nn3c(-c4ccccc4C)nnc3s2)cc1 [Entry F1, 6-(4-Diethylaminophenyl)-3-o-tolyl-[1,2,4]triazolo[3,4-b][1,3,4]thiadiazole] | 6.12 | 113 nM | 372 nM | 6.18 | 694 nM | 5.76 | 801 nM | 6.15 | 6.13 | 303 nM | 5.99
6 | CCN(CC)c1ccc(-c2nn3c(-c4ccccc4Cl)nnc3s2)cc1 [Entry G1, 3-(2-Chlorophenyl)-6-(4-diethylaminophenyl)-[1,2,4]triazolo[3,4-b][1,3,4]thiadiazole] | 6.34 | 41 nM | 149 nM | 6.23 | 492 nM | 5.86 | 405 nM | 6.24 | 6.23 | 155 nM | 6.20
7 | Cc1ccccc1-c1nnc2sc(-c3ccc(N(C)C)cc3)nn12 [Entry I1, 6-(4-Dimethylaminophenyl)-3-o-tolyl-[1,2,4]triazolo[3,4-b][1,3,4]thiadiazole] | 6.22 | 93 nM | 142 nM | 6.06 | 1190 nM | 5.88 | 253 nM | 6.25 | 6.29 | 350 nM | 6.20
8 | COc1ccc(-c2nn3c(-c4cc(OC)c(OC)c(OC)c4)nnc3s2)cc1 [Entry S, 6-(4-Methoxyphenyl)-3-(3,4,5-trimethoxyphenyl)-[1,2,4]triazolo[3,4-b][1,3,4]thiadiazole] | < 5.00 | 4990 nM | > 10000 nM | 5.62 | > 10000 nM | < 5.00 | > 10000 nM | 5.61 | < 5.00 | 1460 nM | < 5.00
9 | COc1cc(-c2nnc3sc(-c4ccc(C)c(C)c4)nn23)cc(OC)c1OC [Entry T, 6-(3,4-Dimethylphenyl)-3-(3,4,5-trimethoxyphenyl)-[1,2,4]triazolo[3,4-b][1,3,4]thiadiazole] | 6.53 | 137 nM | 500 nM | 6.29 | 906 nM | 6.47 | 559 nM | 6.50 | 6.21 | 131 nM | 6.31
10 | Cc1cccc(-c2nn3c(-c4ccc(Cl)cc4Cl)nnc3s2)c1 [K, 3-(2,4-Dichlorophenyl)-6-m-tolyl-[1,2,4]triazolo[3,4-b][1,3,4]thiadiazole] | 6.32 | 123 nM | 559 nM | 6.22 | 400 nM | 6.18 | 500 nM | 6.41 | 6.33 | 379 nM | 6.30
11 | Clc1ccccc1-c1nnc2sc(-c3ccc4c(c3)OCCO4)nn12 [Q, 3-(2-Chlorophenyl)-6-(3,4-ethylenedioxyphenyl)-[1,2,4]triazolo[3,4-b][1,3,4]thiadiazole] | 5.67 | 1300 nM | 2040 nM | 5.61 | 6040 nM | 5.57 | 6730 nM | 6.27 | 6.26 | 1880 nM | 6.16
12 | COc1cc(-c2nnc3sc(-c4ccco4)nn23)cc(OC)c1OC [R, 6-(Furan-2-yl)-3-(3,4,5-trimethoxyphenyl)-[1,2,4]triazolo[3,4-b][1,3,4]thiadiazole] | 6.74 | 442 nM | 450 nM | 6.69 | 1500 nM | 6.67 | 651 nM | 6.62 | 6.61 | 150 nM | 6.60
